Experimental data: US20230172962A1, “NRTIS, NRTI METABOLITES, AND NRTI ANALOGS FOR MACULAR DEGENERATION AND VIRAL INFECTIONS” (priority 2020, published 2023)

Key:
[1] = system: laser-induced choroidal neovascularization (CNV); test: Laser-induced choroidal neovascularization, mouse model of neovascular (wet) macular degeneration; type: in vivo; conditions: wild-type C57BL/6J mice, CNV lesion volume 7 days after laser; FIGS. 3A, 3B, 4
Method: (§1) Animals. Both male and female wild-type (WT) C57BL/6J mice (The Jackson Laboratory, Bar Harbor, Me., United States of America) between 6-10 weeks of age were used in this study. For all procedures, anesthesia was achieved by intraperitoneal injection of 100 mg/kg ketamine hydrochloride (Fort Dodge Animal Health, Overland Park, Kans., United States of America) and 10 mg/kg xylazine (Phoenix Scientific, Inc., St. Joseph, Mo., United States of America), and pupils were dilated with topical 1% tropicamide and 2.5% phenylephrine hydrochloride (Alcon Laboratories, Inc., Ft. Worth, Tex., United States of America). All animal experiments were approved by the Institutional Animal Care and Use Committees of the University of Virginia (Charlottesville, Va., United States of America) and was performed in accordance with the Statement for the Use of Animals in Ophthalmic and Visual Research of the Association for Research in Vision and Ophthalmology (Washington, D.C., United States of America).
(§2) Subretinal and intravitreous injections. Subretinal injections (SRI) (1 μl) and intravitreous injections (0.5 μl) in mice were performed using a 35-gauge needle (Ito Co.). In vitro transcribed Alu RNA (300 ng/μl) was injected into the subretinal space via SRI. 1 mM of 3′-Azido-3′-deoxythymidine β-D-glucuronide (GAZT; Cayman Chemical, Ann Arbor, Mich., United States of America), Lamivudine (R)-sulfoxide (LSO; Toronto Research Chemicals, Toronto, Canada) 2 mM of 3′-Amino-3′-deoxythymidine (AMT; Toronto Research Chemicals), or PBS was injected into the vitreous humor. Kamuvudines including but not limited to K-8 (2-Et-AZT) and K-9 (3-Me-3TC, a.k.a. 3-Me-lamivudine) were previously described (see U.S. Pat. No. 10,294,220, which is incorporated herein by reference in its entirety).
Choroidal neovascularization. Experimental choroidal neovascularization (CNV) was induced via laser photocoagulation (OcuLight GL, IRIDEX Corp., Mountain View, Calif., United States of America; 180 mW, 100 ms, 75 μm) in both eyes. The volume of the CNV lesions was measured after 7 days using a scanning laser confocal microscope (A1R Nikon confocal microscope system, Nikon USA, Melville, N.Y., United States of America) after 0.7% FITC-isolectin B4 staining (Vector Laboratories, Burlingame, Calif., United States of America, USA). The volume of each lesion was calculated using FIJI software (Schindelin et al., 2012).
The ability of NRTI, NRTI metabolites, and NRTI analogs to inhibit neovascular (wet) macular degeneration in a mouse model was tested. The results are shown in FIGS. 3A and 3B and in FIG. 4.

[2] = system: cleavage of pro-caspase-1 into active caspase-1 (NLRP3 inflammasome activation); test: Western blot of Alu RNA-induced caspase-1 cleavage (inflammasome activation) in BMDMs; type: cell-based; conditions: mouse BMDMs, 200 μM compound for 1 hour, then Alu RNA transfection overnight, FIG. 1
Method: (§3) Cell Stimulation. Bone marrow derived macrophages (BMDMs) were treated with 200 μM Zidovudine (AZT), GAZT, AMT, or LSO for 1 hour. Cells were transfected with Alu RNA overnight using Lipofectamine 3000 (Invitrogen) according to manufacturer's instructions.
Western blotting. Serum free media (1 mL) from stimulated BMDMs was transferred into fresh tubes and centrifuged for 10 min at 12,000 rpm at 4° C. 15 μl of 10% sodium deoxycholate was added to the supernatants, vortexed and kept on ice. 72 μl Trichloroacetic acid (Sigma-Aldrich, St. Louis,. Mo., United States of America) was subsequently added and the tubes were kept on ice overnight. After centrifugation for 30 min at 12,000 rpm at 4° C., the pellet was washed twice with 500 μl ice-cold acetone. The pellet was dried and boiled with LDS Sample Buffer and β-mercaptoethanol (Sigma-Aldrich). The precipitated protein was analyzed by immunoblotting.
The ability of NRTI and NRTI metabolites to inhibit inflammasome activation was tested by western blot.

IL-1β release = test: ELISA of Alu RNA-induced IL-1β release from BMDMs; type: cell-based; conditions: mouse BMDMs, 200 μM compound for 1 hour, then Alu RNA transfection overnight, FIG. 2
Method: as §3
Enzyme-linked immunosorbent assay (ELISA). 1.2 million cells/mL were seeded per well in 6-well cell culture dishes overnight and stimulated as mentioned above. Secreted mouse IL-1β in the medium were detected by ELISA (R&D Systems, Inc., Minneapolis, Minn., United States of America) according to the manufacturer's instructions.
The ability of NRTI and NRTI metabolites to inhibit IL-1β release was tested by ELISA.

[3] = system: retinal pigmented epithelium (RPE); test: Alu RNA-induced RPE degeneration, mouse model of atrophic (dry) macular degeneration; type: in vivo; conditions: mice, subretinal Alu RNA, intravitreous 1 mM GAZT or LSO, 2 mM AMT; ZO-1 RPE flat mounts 7 days after injection; FIG. 5
Method: as §1, §2

subretinal fibrosis = test: Subretinal fibrosis after laser injury / subretinal Alu RNA in mice; type: in vivo, mouse; conditions: wild-type mice, intravitreous injection, laser injury with subretinal Alu RNA, collagen type 1 staining after 7 days, FIGS. 6B
Method: as §1
Subretinal and intravitreous injections. Subretinal injections (SRI) (1 μl) and intravitreous injections (0.5 μl) in mice were performed using a 35-gauge needle (Ito Co.). […]
Subretinal fibrosis. […] After mounting in slides, the RPE flat mounts were imaged using a scanning laser confocal microscope (A1R Nikon confocal microscope system, Nikon USA) and the volume of each lesion was calculated by FIJI software. […]

[4] = Cataract formation after administration of fluoxetine preparations to the eye; type: in vivo

Compound | laser-induced choroidal neovascularization (CNV) volume [1] | Alu RNA-induced cleavage of pro-caspase-1 (50 kDa band) into active caspase-1 (20 kDa band) [2] | Alu RNA-induced IL-1β release (IL-1β release) | Alu RNA-induced RPE degeneration [3] | subretinal fibrosis volume (subretinal fibrosis) | cataract formation, share of subjects [4]
CCOCC1OC(n2ccc(N(CC)CC)nc2=O)CS1 (stereo not drawn) [Kamuvudine K-9] | inhibited |  |  |  |  | 
Cc1cn([C@H]2C[C@H](N=[N+]=[N-])[C@@H](CO[C@@H]3O[C@H](C(=O)O)[C@@H](O)[C@H](O)[C@H]3O)O2)c(=O)[nH]c1=O [GAZT, 3′-Azido-3′-deoxythymidine β-D-glucuronide] | inhibited | inhibited | inhibited | inhibited |  | 
Cc1cn([C@H]2C[C@H](N=[N+]=[N-])[C@@H](CO)O2)c(=O)[nH]c1=O [AZT, 1-[(2R,4S,5S)-4-Azido-5-(hydroxymethyl)oxolan-2-yl]-5-methylpyrimidine-2,4-dione, reference compound] | inhibited | inhibited | inhibited |  | reduced subretinal fibrosis volume | 
CCOC[C@H]1O[C@@H](n2cc(C)c(=O)n(CC)c2=O)C[C@@H]1N=[N+]=[N-] [Kamuvudine K-8, 1-[(2R,4S,5S)-4-azide-5-(ethoxymethyl)oxolan-2-yl)-3-ethyl-5-methyl-1,2,3,4-etrahydropyrimidine-2,4-dione] | inhibited |  |  |  | reduced the volume of subretinal fibrosis | 
CNCCC(Oc1ccc(C(F)(F)F)cc1)c1ccccc1 (racemic) [racemic fluoxetine, fluoxetine] |  |  |  |  |  | up to 50%
Nc1ccn([C@@H]2C[S@@+]([O-])[C@H](CO)O2)c(=O)n1 [LSO, Lamivudine (R)-sulfoxide] |  |  | inhibited | inhibited |  | 
Cc1cn([C@H]2C[C@H](N)[C@@H](CO)O2)c(=O)[nH]c1=O [AMT, 3′-Amino-3′-deoxythymidine] | inhibited | inhibited | inhibited | inhibited |  | 
